# Laboratory results taken from patent US4486445A, “Justicidin insecticidal and antiviral compounds” (E. I. Du Pont de Nemours and Company, priority 1983, dated 1984).
# Key:
# Spodoptera eridania = test: insecticidal and feeding inhibition test against southern army worm in pinto bean diet; assay type: in vivo
# Experimental: (§1) The insecticidal activity of the crude acetone/water extracts of Justicia extensa, prepared according to the isolation procedure described previously, was tested against laboratory cultures of the mosquito species Aedes egypti (Linnaeus) and southern army worm (SAW) Spodoptera eridania (Cramer). Extracts of leaves, branches and roots were employed in each test.
# [1] = in vitro toxicity in MDCK cells; assay type: cell-based, Canine; conditions: dog
# Experimental: In vitro toxicity studies of natural Justicidin P were conducted using Madin-Darby Canine Kidney (MDCK) cells and test concentrations ranging between 0.01 and 0.56 μg/ml. In these tests, Justicidin P was suspended in MEM, diluted, and suspended in a purified agar solution. Duplicate plates containing MDCK cell layers were washed twice with HBSS, overlayed with the test compound-agar solutions, and incubated at 34° C., 5% CO2 for 72 hours. At the conclusion of the incubation period, cell layers were stained with 1% crystal violet, rinsed with tap water, dried and visually inspected to determine toxicity.
# [2] = tested on: Herpes Type 2-Alabama strain; test: plaque formation inhibition, Herpes Type 2 in HeLa cells; assay type: cell-based
# IMR-90 cells = conditions: all concentrations tested
# Aedes egypti larvae [3] = test: insecticidal activity against larvae of A. egypti in water; assay type: in vivo; conditions: Aedes; larvae of A. egypti in H2O; read-out: EC50 (effective kill concentration for 50% of the experimental larvae)
# Experimental: as §1
# In tests against larvae of A. egypti, 10 mg of the crude plant extract was thoroughly dispersed in 20 ml of water in a test tube to which 10 first instar larvae were added.
# HeLa cells = assay type: cell-based; conditions: 64 μg/ml to 1 μg/ml
# A/JAX inbred mice = test: in vivo oral toxicity in A/JAX inbred mice; conditions: orally, 200 and 100 mg/kg
# Experimental: (§2) In vivo toxicity studies of natural and synthetic Justicidin P produced mixed results. […] However, natural and synthetic Justicidin P were toxic to A/JAX inbred mice when administered orally at dosages of 200 and 100 mg/kg.
# Herpes Type 1-strain VR3 = test: plaque formation inhibition, Herpes Type 1 in HeLa cells; assay type: cell-based
# [4] = tested on: Human Rhino Virus (HRV-2); test: inhibition of HRV-2 in HeLa cells; assay type: cell-based, Human rhinovirus HRV-2; conditions: Rhinovirus A, 200 PFU
# Aedes egypti larvae [5] = test: insecticidal activity against larvae of A. egypti in water; assay type: in vivo; conditions: lower concentrations
# out-bred mice = test: in vivo oral toxicity in out-bred mice; conditions: orally, up to about 324 mg/kg
# Experimental: as §2
# [6] = tested on: southern army worm (SAW) Spodoptera eridania; test: spray applied to SAW; assay type: in vivo
# Experimental: When a spray containing 2.0 mg/ml purified Justicidin P in water was applied to SAW, 85% feeding inhibition but 0% kill was observed.
# in vitro = conditions: human, diploid fibroblast cells
smiles,measurement,setting,value
"COc1cc2c(OC)c3c(c(-c4ccc5c(c4)OCO5)c2cc1OC)C(=O)OC3OC (single isomer, unassigned) [Justicidin P (natural)]",feeding inhibition,Spodoptera eridania; 1 μg/gm in pinto bean diet,62%
same,feeding inhibition,Spodoptera eridania; 10 μg/gm in pinto bean diet,77%
same,feeding inhibition,Spodoptera eridania; 100 μg/gm in pinto bean diet,85%
same,mortality at 1 µg/g,"Spodoptera eridania; Spodoptera eridania, 1 μg/gm in pinto bean diet, read-out: kill",20%
same,mortality at 10 µg/g,"Spodoptera eridania; Spodoptera eridania, 10 μg/gm in pinto bean diet, read-out: kill",10%
same,mortality at 100 µg/g,"Spodoptera eridania; Spodoptera eridania, 100 μg/gm in pinto bean diet, read-out: kill",60%
same,cytotoxicity at 72 h,[1]; 0.01 μg/ml,1%
same,cytotoxicity at 72 h,[1]; 0.02 μg/ml,5%
same,cytotoxicity at 72 h,[1]; 0.05 μg/ml,15%
same,cytotoxicity at 72 h,[1]; 0.11 μg/ml,30%
same,cytotoxicity at 72 h,[1]; 0.25 μg/ml,40%
same,cytotoxicity at 72 h,[1]; 0.56 μg/ml,70%
same,Mean Plaques/Plate,"[2]; 0.004 μg/ml, HSV-2, HeLa",136
same,Mean Plaques/Plate,"[2]; 0.016 μg/ml, HSV-2, HeLa",114
same,Mean Plaques/Plate,"[2]; 0.063 μg/ml, HSV-2, HeLa",60
same,Mean Plaques/Plate,"[2]; 0.25 μg/ml, HSV-2, HeLa",7
same,antiviral activity against Herpes Type 2,[2]; HeLa cells,demonstrated antiviral activity
same,inhibition at 0.004 µg/mL,"[2]; Human alphaherpesvirus 2, 0.004 μg/ml, HSV-2, HeLa",14%
same,inhibition at 0.016 µg/mL,"[2]; Human alphaherpesvirus 2, 0.016 μg/ml, HSV-2, HeLa",28%
same,inhibition at 0.063 µg/mL,"[2]; Human alphaherpesvirus 2, 0.063 μg/ml, HSV-2, HeLa",62%
same,inhibition at 0.25 µg/mL,"[2]; Human alphaherpesvirus 2, 0.25 μg/ml, HSV-2, HeLa",96%
same,cytotoxicity,IMR-90 cells,exhibited cytotoxicity at all concentrations tested
same,LC50,Aedes egypti larvae [3],0.05 µg/mL
same,cytotoxicity,HeLa cells,severe cytotoxicity
same,in vivo toxicity,A/JAX inbred mice,toxic
same,Mean Plaques/Plate,"Herpes Type 1-strain VR3; 0.004 μg/ml, HSV-1, HeLa",134
same,Mean Plaques/Plate,"Herpes Type 1-strain VR3; 0.016 μg/ml, HSV-1, HeLa",117
same,Mean Plaques/Plate,"Herpes Type 1-strain VR3; 0.063 μg/ml, HSV-1, HeLa",122
same,Mean Plaques/Plate,"Herpes Type 1-strain VR3; 0.25 μg/ml, HSV-1, HeLa",87
same,antiviral activity against Herpes Type 1,Herpes Type 1-strain VR3; HeLa cells,demonstrated antiviral activity
same,inhibition at 0.004 µg/mL,"Herpes Type 1-strain VR3; Human alphaherpesvirus 1, 0.004 μg/ml, HSV-1, HeLa",0%
same,inhibition at 0.016 µg/mL,"Herpes Type 1-strain VR3; Human alphaherpesvirus 1, 0.016 μg/ml, HSV-1, HeLa",6%
same,inhibition at 0.063 µg/mL,"Herpes Type 1-strain VR3; Human alphaherpesvirus 1, 0.063 μg/ml, HSV-1, HeLa",2%
same,inhibition at 0.25 µg/mL,"Herpes Type 1-strain VR3; Human alphaherpesvirus 1, 0.25 μg/ml, HSV-1, HeLa",31%
same,inhibition at 0.016 µg/mL,"[4]; HRV2, 0.016 μg/ml",107%
same,inhibition at 0.08 µg/mL,"[4]; HRV2, 0.08 μg/ml",≥ 100%
same,inhibition at 0.4 µg/mL,"[4]; HRV2, 0.4 μg/ml",≥ 100%
same,inhibition at 2 µg/mL,"[4]; HRV2, 2 μg/ml",≥ 100%
same,inhibition at 10 µg/mL,"[4]; HRV2, 10 μg/ml",64%
same,insecticidal activity of purified fractions,Aedes egypti larvae [5],insecticidal component of the J. extensa extracts
same,in vivo toxicity,out-bred mice,no toxicity was observed
same,mortality at 2000 µg/mL,"[6]; Spodoptera eridania, topical, read-out: kill",0%
same,feeding inhibition,[6]; spray containing 2.0 mg/ml in water,85%
same,selectivity ratio,in vitro,10 to 60
